Source: patent publication US20220348592A1, “FUSED HETEROCYCLIC DERIVATIVES” (Janssen Sciences Ireland Unlimited Company, priority 2019, published 2022)

Tests used:
[1] = test system: HBV; test: Anti-HBV activity: intracellular HBV DNA by real-time PCR in HepG2.117 cell line; assay type: cell-based, Hepatitis B virus; conditions: Hepatitis B virus, 72 h; HepG2.117 cells, 3 days of treatment, intracellular HBV DNA by real-time PCR, mean value; read-out: HBV-AVE-HepG2.117 EC50 (μM, mean value)
In short: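 HepG2.117 cells, a Tet-off inducible HBV-producing line, induced to replicate HBV and then treated with serially diluted compound. After 3 days, intracellular HBV DNA quantified by real-time PCR with HBV-specific primers and probe.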

[2] = Cytotoxicity in HepG2.117 cells, ATPlite Luminescence Assay; assay type: cell-based, human; conditions: human, incubated for 3 days, mean value, read-out: TOX-HepG2.117 CC50 (μM, mean value)
Procedure: Cytotoxicity of the compounds was tested using HepG2 or HepG2.117 cells, incubated for 3 days in the presence of compounds. The viability of the cells was assessed using the PERKIN ELMER ATPlite Luminescence Assay System.”

| SMILES | EC50 [1] [µM] | CC50 at 3 days [2] [µM] |
| --- | --- | --- |
| CC(c1nc(C2CC2)no1)N1CCn2nc3c(c2C1=O)CN(C(=O)c1ccc(Cl)c(Cl)c1)[C@H](C)C3 (stereo partly drawn) [Example C190] | 0.115 | 33.1 |
| CC(c1cccc2cccnc12)N1CCn2nc3c(c2C1=O)CN(C(=O)c1ccc(Cl)c(Cl)c1)[C@H](C)C3 (stereo partly drawn) [Example C191] | 0.097 | 33 |
| CC(c1ccc(F)cc1F)N1CCn2nc3c(c2C1=O)CN(C(=O)c1ccc(Cl)c(Cl)c1)[C@H](C)C3 (stereo partly drawn) [Example C192] | 0.076 | 39.7 |
| Cc1nccnc1C(C)N1CCn2nc3c(c2C1=O)CN(C(=O)c1ccc(Cl)c(Cl)c1)[C@H](C)C3 (stereo partly drawn) [Example C193] | 0.197 | > 50 |
| CC(c1cccc(OC(F)(F)F)c1)N1CCn2nc3c(c2C1=O)CN(C(=O)c1ccc(Cl)c(Cl)c1)[C@H](C)C3 (stereo partly drawn) [Example C194] | 0.075 | 26.4 |
| C[C@@H]1Cc2nn3c(c2CN1C(=O)c1ccc(Cl)c(Cl)c1)C(=O)N(Cc1ccc(C#N)cn1)CC3 [Example C195] | 0.566 | > 50 |
| C[C@@H]1Cc2nn3c(c2CN1C(=O)c1ccc(Cl)c(Cl)c1)C(=O)N(Cc1cc(F)cc(F)c1)CC3 [Example C196] | 0.048 | 38 |
| C[C@@H]1Cc2nn3c(c2CN1C(=O)c1ccc(Cl)c(Cl)c1)C(=O)N(Cc1c(F)cncc1F)CC3 [Example C197] | 0.24 | > 50 |
| COc1ncc(CN2CCn3nc4c(c3C2=O)CN(C(=O)c2ccc(Cl)c(Cl)c2)[C@H](C)C4)cn1 [Example C198] | 0.053 | > 50 |
| C[C@@H]1Cc2nn3c(c2CN1C(=O)c1ccc(Cl)c(Cl)c1)C(=O)N(Cc1nc(Cl)ccc1F)CC3 [Example C199] | 0.33 | > 50 |
| C[C@@H]1Cc2nn3c(c2CN1C(=O)c1ccc(Cl)c(Cl)c1)C(=O)N(Cc1nnn(C)n1)CC3 [Example C200] | 0.25 | > 50 |
| C[C@@H]1Cc2nn3c(c2CN1C(=O)c1ccc(Cl)c(Cl)c1)C(=O)N(Cc1nnc(C2CC2)o1)CC3 [Example C201] | 0.229 | > 50 |
| C[C@@H]1Cc2nn3c(c2CN1C(=O)c1ccc(Cl)c(Cl)c1)C(=O)N(Cc1cn(C)cn1)CC3 [Example C202] | 0.071 | > 50 |
| C[C@@H]1Cc2nn3c(c2CN1C(=O)c1ccc(Cl)c(Cl)c1)C(=O)N(Cc1ccc(C#N)cc1OC(F)F)CC3 [Example C203] | 0.09 | > 50 |
| Cc1cc(CN2CCn3nc4c(c3C2=O)CN(C(=O)c2ccc(Cl)c(Cl)c2)[C@H](C)C4)ccc1C#N [Example C204] | 0.028 | 19.2 |
| Cc1cc(C#N)ccc1CN1CCn2nc3c(c2C1=O)CN(C(=O)c1ccc(Cl)c(Cl)c1)[C@H](C)C3 [Example C207] | 0.053 | 25.6 |
| C[C@@H]1Cc2nn3c(c2CN1C(=O)c1ccc(Cl)c(Cl)c1)C(=O)N(Cc1ccc(F)cn1)CC3 [Example C208] | 0.13 | > 50 |
| Cc1ncc(CN2CCn3nc4c(c3C2=O)CN(C(=O)c2ccc(Cl)c(Cl)c2)[C@H](C)C4)o1 [Example C209] | > 2.5 | > 50 |
| C[C@@H]1Cc2nn3c(c2CN1C(=O)c1ccc(Cl)c(Cl)c1)C(=O)N(Cc1ccnc(F)c1)CC3 [Example C210] | 0.062 | > 50 |
| C[C@@H]1Cc2nn3c(c2CN1C(=O)c1ccc(Cl)c(Cl)c1)C(=O)N(Cc1ccnc(C#N)c1)CC3 [Example C211] | 0.285 | > 50 |
| C[C@@H]1Cc2nn3c(c2CN1C(=O)c1ccc(Cl)c(Cl)c1)C(=O)N(Cc1cc(F)ccc1OC(F)F)CC3 [Example C212] | 0.05 | > 50 |
| C[C@@H]1Cc2nn3c(c2CN1C(=O)c1ccc(Cl)c(Cl)c1)C(=O)N(Cc1cccc(C(F)(F)F)n1)CC3 [Example C213] | 0.382 | 37.5 |
| Cc1ncoc1CN1CCn2nc3c(c2C1=O)CN(C(=O)c1ccc(Cl)c(Cl)c1)[C@H](C)C3 [Example C214] | 0.074 | > 50 |
| COc1ccc(C#N)cc1CN1CCn2nc3c(c2C1=O)CN(C(=O)c1ccc(Cl)c(Cl)c1)[C@H](C)C3 [Example C215] | 0.106 | > 50 |
| C[C@@H]1Cc2nn3c(c2CN1C(=O)c1ccc(Cl)c(Cl)c1)C(=O)N(Cc1ccc(F)c(C#N)c1)CC3 [Example C216] | 0.09 | > 50 |
| CC(c1nc(C(C)(C)C)no1)N1CCn2nc3c(c2C1=O)CN(C(=O)c1ccc(Cl)c(Cl)c1)[C@H](C)C3 (stereo partly drawn) [Example C217] | 0.183 | 39.5 |
| CC(c1nccs1)N1CCn2nc3c(c2C1=O)CN(C(=O)c1ccc(Cl)c(Cl)c1)[C@H](C)C3 (stereo partly drawn) [Example C218] | 0.039 | > 50 |

| SMILES | EC50 [1] [µM] | CC50 at 3 days [2] [µM] |
| --- | --- | --- |
| Cc1cnc(C(C)N2CCn3nc4c(c3C2=O)CN(C(=O)c2ccc(Cl)c(Cl)c2)[C@H](C)C4)cn1 (stereo partly drawn) [Example C219] | 0.068 | > 50 |
| CCc1nnc(C(C)N2CCn3nc4c(c3C2=O)CN(C(=O)c2ccc(Cl)c(Cl)c2)[C@H](C)C4)o1 (stereo partly drawn) [Example C220] | 0.077 | > 50 |
| Cc1cnc(C(C)N2CCn3nc4c(c3C2=O)CN(C(=O)c2ccc(Cl)c(Cl)c2)[C@H](C)C4)o1 (stereo partly drawn) [Example C221] | 0.022 | > 50 |
| CCc1noc(C(C)N2CCn3nc4c(c3C2=O)CN(C(=O)c2ccc(Cl)c(Cl)c2)[C@H](C)C4)n1 (stereo partly drawn) [Example C222] | 0.124 | > 50 |
| Cc1noc(C(C)N2CCn3nc4c(c3C2=O)CN(C(=O)c2ccc(Cl)c(Cl)c2)[C@H](C)C4)n1 (stereo partly drawn) [Example C223] | 0.219 | > 50 |
| Cc1nnc(C(C)N2CCn3nc4c(c3C2=O)CN(C(=O)c2ccc(Cl)c(Cl)c2)[C@H](C)C4)o1 (stereo partly drawn) [Example C224] | 0.326 | > 50 |
| Cc1nc(C(C)N2CCn3nc4c(c3C2=O)CN(C(=O)c2ccc(Cl)c(Cl)c2)[C@H](C)C4)no1 (stereo partly drawn) [Example C225] | 0.263 | > 50 |
| COc1ccccc1C(C)N1CCn2nc3c(c2C1=O)CN(C(=O)c1ccc(Cl)c(Cl)c1)[C@H](C)C3 (stereo partly drawn) [Example C227] | 0.129 | 37.3 |
| C[C@@H]1Cc2nn3c(c2CN1C(=O)c1ccc(Cl)c(Cl)c1)C(=O)N(Cc1cc(F)ccc1F)CC3 [Example C228] | 0.062 | 37.5 |
| Cc1ocnc1CN1CCn2nc3c(c2C1=O)CN(C(=O)c1ccc(Cl)c(Cl)c1)[C@H](C)C3 [Example C229] | 0.438 | > 25 |
| C[C@@H]1Cc2nn3c(c2CN1C(=O)c1ccc(Cl)c(Cl)c1)C(=O)N(Cc1cc(F)cc(C#N)c1)CC3 [Example C230] | 0.045 | > 12.5 |
| C[C@@H]1Cc2nn3c(c2CN1C(=O)c1ccc(Cl)c(Cl)c1)C(=O)N(Cc1cccc(C#N)c1F)CC3 [Example C231] | 0.09 | > 50 |
| Cc1ccc(CN2CCn3nc4c(c3C2=O)CN(C(=O)c2ccc(Cl)c(Cl)c2)[C@H](C)C4)c(C)n1 [Example C232] | 0.066 | 24.4 |
| C[C@@H]1Cc2nn3c(c2CN1C(=O)c1ccc(Cl)c(Cl)c1)C(=O)N(Cc1cccnc1C(F)(F)F)CC3 [Example C233] | 0.423 | 29.8 |
| Cc1nc(C)c(CN2CCn3nc4c(c3C2=O)CN(C(=O)c2ccc(Cl)c(Cl)c2)[C@H](C)C4)s1 [Example C234] | 0.036 | > 50 |
| C[C@@H]1Cc2nn3c(c2CN1C(=O)c1ccc(Cl)c(Cl)c1)C(=O)N(Cc1nc(C2CC2)nn1C)CC3 [Example C235] | 1.93 | > 50 |
| Cc1conc1CN1CCn2nc3c(c2C1=O)CN(C(=O)c1ccc(Cl)c(Cl)c1)[C@H](C)C3 [Example C236] | 0.325 | > 51 |
| C[C@@H]1Cc2nn3c(c2CN1C(=O)c1ccc(Cl)c(Cl)c1)C(=O)N(Cc1ccc(C(F)(F)F)cn1)CC3 [Example C237] | 0.107 | 18.8 |
| C[C@@H]1Cc2nn3c(c2CN1C(=O)c1ccc(Cl)c(Cl)c1)C(=O)N(Cc1ccc(C#N)c(F)c1)CC3 [Example C238] | 0.029 | 39.9 |
| C[C@@H]1Cc2nn3c(c2CN1C(=O)c1ccc(Cl)c(Cl)c1)C(=O)N(Cc1cn(C2CC2)nn1)CC3 [Example C239] | 0.154 | > 50 |
| C[C@@H]1Cc2nn3c(c2CN1C(=O)c1ccc(Cl)c(Cl)c1)C(=O)N(Cc1cnc(Cl)c(F)c1)CC3 [Example C240] | 0.017 | 35.2 |
| Cc1nocc1CN1CCn2nc3c(c2C1=O)CN(C(=O)c1ccc(Cl)c(Cl)c1)[C@H](C)C3 [Example C241] | 0.19 | > 50 |
| C[C@@H]1Cc2nn3c(c2CN1C(=O)c1ccc(Cl)c(Cl)c1)C(=O)N(Cc1nccn1C)CC3 [Example C242] | 0.589 | > 50 |
| CCOc1cc(CN2CCn3nc4c(c3C2=O)CN(C(=O)c2ccc(Cl)c(Cl)c2)[C@H](C)C4)nc2nc(C(F)(F)F)nn12 [Example C243] | > 2.5 | > 50 |
| CC(c1ccccc1F)N1CCn2nc3c(c2C1=O)CN(C(=O)c1ccc(Cl)c(Cl)c1)[C@H](C)C3 (stereo partly drawn) [Example C244] | 0.048 | 24.5 |
| Cc1nnc(C(C)N2CCn3nc4c(c3C2=O)CN(C(=O)c2ccc(Cl)c(Cl)c2)[C@H](C)C4)s1 (stereo partly drawn) [Example C245] | 0.072 | > 50 |
| CC(c1cnccn1)N1CCn2nc3c(c2C1=O)CN(C(=O)c1ccc(Cl)c(Cl)c1)[C@H](C)C3 (stereo partly drawn) [Example C246] | 0.171 | > 50 |
